Data on 3 molecules can be found in US20150011542A1, “Methods of Treating Adverse Intestinal Effects of Non-Steroidal Anti-Inflammatory Drugs” (University of Connecticut, priority 2012, published 2015).

The Tmax is the time from dosing to the highest level. By AUC(0-t) is commonly meant the area under the concentration-time curve up to a stated or last time point. Read a high AUC(0-t) as high exposure. What is called Cmax is the maximum level reached in the sampled fluid or tissue. The half-life is how long it takes for the measured level to halve. The term inhibition denotes the drop in the measured response relative to a control, in per cent.

Structures are written as SMILES. “Also recorded” adds a separate entry of the source.

For series [1] the following is noted: mouse, in vivo, ip, 60 mg/kg.
The conditions of series [2]: humans, cited from earlier work.
A further series in a line: in vivo. To be noted: male, C57BL/6, mouse, 60 mg/kg.
For series [3] the following is noted: cited from earlier work.
For series [4], the system named is DCF-induced small intestinal ulceration. The series can be described thus: Diclofenac-induced small intestinal ulceration in mice (NBT staining, morphometry, histopathology). Format: in vivo. An excerpt: Male C57BL/6J mice were obtained from The Jackson Laboratory (Bar Harbor, Me.). The mice were acclimatized for three weeks before the experiments and were 10-12 weeks of age at the start of the experiments. The animals were kept on a 14:10-hour light:dark cycle. They received mouse chow (Teklad Global Rodent Diet, Harlan Laboratories, Boston, Mass.) and water ad libitum. All studies were approved by the Institutional Animal Care and Use Committee of the University of Connecticut. […] All animals were treated at five hours before the start of the dark cycle. […] Control animals received methyl cellulose and/or Solutol HS-15.
(§1) Enteropathy was assessed and graded as described previously (Ramirez-Alcantara et al., Am. J. Physiol. (Gastrointest. Liver Physiol.), 297:G990-G998 (2009)). Briefly, mice were sacrificed by CO2 inhalation at 18 hours post-DCF (when the development of mucosal injury was maximal). A midline incision was made and blood was obtained via cardiac puncture. Serum was prepared and frozen at −80° C. until use for analysis. The entire small intestine (from the gastroduodenal junction to the ileocecal junction) was removed and opened longitudinally along the anti-mesenteric side. The tissue was rinsed in cold PBS and incubated for 15 minutes in 1 mM nitroblue tetrazolium (NBT) solution containing 16 mM HEPES-NaOH, 125 mM NaCl buffer, 3.5 mM KCl, and 10 mM glucose. Next, the tissues were fixed in 10% zinc formalin for 24 hours, washed, and transferred to 70% ethanol. The intestine was metrically divided into four quartiles of equal length and evaluated at 10× magnification for quantitative and qualitative analysis of mucosal injury, and the lesions were assigned to the respective quartiles. The following scoring system was used: 0, no apparent lesions; 1, small erosions or ulcers (<0 1 mm); 2, medium ulcers (0.1-0.8 mm); 3, large confluent ulcers (>0.8 mm) In addition, the total area of the lesions was quantified by Image J software. The formalin-fixed tissue was embedded in paraffin, and 5-μm sections were stained with hematoxylin/eosin for histopathological evaluation. Serum activity of alkaline phosphatase (ALP) was measured with a kinetic colorimetric kit (BioAssay Systems, Hayward, Calif.).

Series [5] in a line: Pharmacokinetic profiling of diclofenac in mice with or without Inh-1 pretreatment. To be noted: male, C57BL/6, mouse, in vivo, ip, 60 mg/kg.
The target in the next series is T1, E. coli β-glucuronidase (Escherichia coli, UniProt P05804).
T1 construct: made in house
T1 sequence (P05804 whole entry): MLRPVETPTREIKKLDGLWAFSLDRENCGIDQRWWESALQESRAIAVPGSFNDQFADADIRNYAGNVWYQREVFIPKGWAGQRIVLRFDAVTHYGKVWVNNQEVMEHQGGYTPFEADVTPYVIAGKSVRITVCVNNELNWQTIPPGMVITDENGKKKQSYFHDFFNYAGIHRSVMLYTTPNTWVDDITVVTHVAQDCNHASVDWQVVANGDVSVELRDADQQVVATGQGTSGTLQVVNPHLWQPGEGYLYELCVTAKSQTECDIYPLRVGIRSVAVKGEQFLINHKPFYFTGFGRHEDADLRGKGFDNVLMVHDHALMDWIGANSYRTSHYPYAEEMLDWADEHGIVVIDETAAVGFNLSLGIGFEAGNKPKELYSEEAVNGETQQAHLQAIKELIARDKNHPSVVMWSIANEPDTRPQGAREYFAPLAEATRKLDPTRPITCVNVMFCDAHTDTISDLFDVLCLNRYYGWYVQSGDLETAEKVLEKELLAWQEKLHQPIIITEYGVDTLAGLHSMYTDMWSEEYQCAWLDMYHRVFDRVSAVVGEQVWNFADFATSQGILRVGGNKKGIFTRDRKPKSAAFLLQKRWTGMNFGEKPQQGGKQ
The series can be described thus: Inhibition of E. coli β-glucuronidase cleavage of diclofenac 1-β-O-acyl glucuronide (HPLC-UV of DCF product). Format: biochemical.

Series [6] concerns serum alkaline phosphatase (ALP) activity. The series can be described thus: Serum alkaline phosphatase activity as biomarker of enteropathy. To be noted: Inh-1 pretreatment; 18 h post-DCF. It counts as in vivo, mice. On the procedure:
as §1, with “(Ramirez-[…]” for “(Ramirez-Alcantara”, “297:[…]-[…]” for “297:G990-G998”, “-80°” for “−80°”, “Next, the tissues were fixed in 10% zinc formalin for 24 hours, washed, and transferred to 70% ethanol.” left out, “The following scoring system was used: 0, no apparent lesions; 1, small erosions or ulcers (<0 1 mm); 2, medium ulcers (0.1-0.8 mm); 3, large confluent ulcers (>0.8 mm) In addition, the total area of the lesions was quantified by Image J software.” left out

With `O=C(O)Cc1ccccc1Nc1c(Cl)cccc1Cl` [Diclofenac, diclofenac], the “apparent Cmax” value in series [1] is listed as “high micromolar range”. In addition, the “total DCF clearance in the form of glucuronides” value in series [2] (including AGs of 4′-hydroxy-DCF) is “approximately 75%”. For the same molecule, the “DCF excreted via bile” value in series [2] (initial studies) is recorded as 10-20%. The Tmax in “in vivo” is 9.6 min. For the same molecule, in “in vivo” (ip), the AUC(0-t) is 208 µg·h/mL, the Cmax was 265 µg/mL and the Tmax is 10 min. Further, the “[14C]-DCF equivalents appearing in bile” value in series [3] (during 60 minutes after intravenous 5 mg/kg in mice) is 42%. The “small intestinal ulceration caused by DCF alone” value in series [4] (DCF 60 mg/kg ip, single dose, 18 h) is “developed typical nitroblue tetrazolium-(NBT-) positive areas of ulceration in the jejunum and ileum”. For the same molecule, the half-life in series [5] was 169 min.

In the case of `CCOc1ccc(NC(=S)N(CCO)Cc2cc3cc(C)cc(C)c3[nH]c2=O)cc1` [Inh-1, ((6,8-dimethyl-2-oxo-1,2-dihydroquinolin-3-yl)methyl)-3-(4-ethoxyphenyl)-1-(2-hydroxyethyl)thiourea], the “inhibition of product (free DCF) formation” value at E. coli β-glucuronidase (increasing Inh-1 concentrations, DCF-AG 4 mM, FIG. 1B) is listed as “concentration-dependent inhibition of product formation”. The inhibition at 100 µM on E. coli β-glucuronidase (read-out: inhibition of release of free DCF from DCF-AG) is greater than 90%. Besides, the “ulcer size and number, quartiles 3 and 4” value in series [4] (Inh-1 10 μg/mouse po b.i.d. x2 days before DCF 60 mg/kg ip, 18 h post-DCF) was “greatly reduced both in size and number”. In addition, the “histopathology: ulcers with loss of villi and inflammatory response” value in series [4] (Inh-1 pretreatment plus DCF 60 mg/kg ip) is recorded as “largely prevented these changes”. Further, the “NBT-positive areas of ulceration, macroscopic” value in series [4] (Inh-1 pretreatment plus DCF 60 mg/kg ip, jejunum, 18 h) was “absence of any large ulceration; also recorded: only few isolated and small NBT-positive areas”. The “protection from DCF-induced acute small intestinal injury” value in series [4] (mice, overall conclusion) is “significant protection”. In series [6], the “DCF-associated decrease in serum alkaline phosphatase (ALP) activity” value is recorded as “largely prevented”.

On to `O=C(Cc1ccccc1Nc1c(Cl)cccc1Cl)O[C@@H]1O[C@H](C(=O)O)[C@@H](O)[C@H](O)[C@H]1O` [DCF-AG, diclofenac 1-β-O-acyl glucuronide], for which, in series [3] (gallbladder-cannulated mice), the “amount of biliary DCF-AG relative to parent DCF” value was 117 fold and the “amount of biliary DCF-AG relative to ring-hydroxylated DCF” value is 22 fold. Besides, the “amount of DCF-AG in bile” value in series [3] (mice) is reported as “approximately 4 % of the dose”. Besides, the “conversion of DCF-AG to its aglycone by purified enzyme (substrate)” value on E. coli β-glucuronidase (various concentrations, data not shown) was “converted DCF-AG (various concentrations) to its aglycone”.
